Assay results from US20060009463A1, “N-(3-rifamycinyl)-carbamates, method of preparing them and their use for treating and preventing tuberculosis” (priority 2002, published 2006).

What was measured:
[1] = tested on: Bacillus subtilis ATCC 6633; experiment: double-dosage method of diffusion in agar; format: cell-based; details: for relative activity, Bacillus subtilis ATCC 6633: activity of rifampicin taken as 1000, agar diffusion, 5 and 10 μg/ml, pH 7.4; for antibiotic activity compared with rifampicine (in words): against Bacillus subtilis
M. tuberculosis H37Rv = experiment: ex vivo anti-mycobacterial activity, growth in mouse macrophages; format: cell-based, Mycobacterium tuberculosis; details: for Macrophage Data, Monolayer 1 / Macrophage Data, Monolayer 2 / Macrophage Data, Monolayer 3 / Macrophage Data, Monolayer 4 / Macrophage Data, Monolayer mean: J774 mouse macrophages infected with M. tuberculosis H37Rv; for Macrophage Data, Monolayer 1 / Macrophage Data, Monolayer 2 / Macrophage Data, Monolayer 3 / Macrophage Data, Monolayer 4: 24 hours with compound; for in vitro and ex vivo activity against Mycobacterium tuberculosis compared with rifampicine (in words): general statement of the description; for Macrophage Data, Monolayer mean: mean of monolayers 1-4, 24 hours
Escherichia coli = experiment: double-dosage method of diffusion in agar; details: for relative activity, Escherichia coli: activity of rifampicin taken as 1000, agar diffusion, 5 and 10 μg/ml, pH 7.4
Protocol: (§1) This test is based on the logarithmic dependence between the size of the inhibition area associated with the bacterial growth in a layer of agar (response) and the quantity of the applied antibiotic.
(§2) From these solutions buffered solutions were prepared in phosphate buffer, pH 7.4 at concentrations of 5 and 10 μg/ml.
(§3) An initial suspension of the test microorganism (Bacillus subtilis ATCC 6633, Escherichia coli, Bacillus mycoide, Klebsiella pneumoniae, Pseudomonas aeruginosa) was prepared having a UV-light transmission of about 25%. A suitable diffusion medium (for example for Bacillus subtilis: 1 g pepton, 3 g yeast extract, 15-18 g agar, in 1 l water, pH 7.8-8.0 after sterilization) was inoculated with 0.5 ml of the initial suspension per 100 ml medium at a temperature of 60-65° C. 20 ml of the mixture each was filled into Petri's dishes (diameter 100 mm). After hardening of the medium four pits (diameter 5 mm) were placed in each dish and onto every pit 90 μl of the solutions of the reference and the tested compounds were added. The dishes were incubated at 37° C. for at least 15 hours. The sizes (diameters) of the areas of inhibition were then measured with an accuracy of 0.1 mm.
(§4) The activity A was calculated according to • lg A=(lv/w) with • I=lg (high concentration/low concentration), • v=(ΣX1+ΣX2)−(ΣP1+ΣP2), and • w=(ΣX2+ΣP2)−(ΣX1+ΣP1), with • X1: area size in mm at low concentration of the sample, • X2: area size in mm at high concentration of the sample, • P1: area size in mm at low concentration of the reference, • P2: area size in mm at low concentration of the reference,

Bacillus mycoide = experiment: double-dosage method of diffusion in agar; details: activity of rifampicin taken as 1000, 5 and 10 μg/ml, pH 7.4
Protocol: as §1, §2
An initial suspension of the test microorganism (Bacillus subtilis ATCC 6633, Escherichia coli, Bacillus mycoide, Klebsiella pneumoniae, Pseudomonas aeruginosa) was prepared having a UV-light transmission of about 25%. A suitable diffusion medium (for example for Bacillus subtilis: 1 g pepton, 3 g yeast extract, 15-18 g agar, in 1 l water, pH 7.8-8.0 after sterilization) was inoculated with 0.5 ml of the initial suspension per 100 ml medium at a temperature of 60-65° C. 20 ml of the mixture each was filled into Petri's dishes (diameter 100 mm). […] The sizes (diameters) of the areas of inhibition were then measured with an accuracy of 0.1 mm.
as §4

Klebsiella pneumoniae = experiment: double-dosage method of diffusion in agar; details: for relative activity, Klebsiella pneumoniae: activity of rifampicin taken as 1000, agar diffusion, 5 and 10 μg/ml, pH 7.4
Protocol: as §1, §2, §3, §4

Pseudomonas aeruginosa = experiment: double-dosage method of diffusion in agar; details: for relative activity, Pseudomonas aeruginosa: activity of rifampicin taken as 1000, agar diffusion, 5 and 10 μg/ml, pH 7.4
Protocol: as §1, §2, §3, §4

| Structure (SMILES) | relative activity, Bacillus subtilis ATCC 6633 [1] | antibiotic activity compared with rifampicine (in words) [1] | Macrophage Data, Monolayer 1 (M. tuberculosis H37Rv) [CFU/ml] | Macrophage Data, Monolayer 2 (M. tuberculosis H37Rv) [CFU/ml] | Macrophage Data, Monolayer 3 (M. tuberculosis H37Rv) [CFU/ml] | Macrophage Data, Monolayer 4 (M. tuberculosis H37Rv) [CFU/ml] | in vitro and ex vivo activity against Mycobacterium tuberculosis compared with rifampicine (in words) (M. tuberculosis H37Rv) | Macrophage Data, Monolayer mean (M. tuberculosis H37Rv) [CFU/ml] | relative activity, Escherichia coli (Escherichia coli) | relative activity, Bacillus mycoide (Bacillus mycoide) | relative activity, Klebsiella pneumoniae (Klebsiella pneumoniae) | relative activity, Pseudomonas aeruginosa (Pseudomonas aeruginosa) | antibiotic activity compared with rifampicine (in words) ([1]; listed as N-(methyloxycarbonyl)-3-aminorifamycin S) | antibiotic activity compared with rifampicine (in words) ([1]; listed as methyl) | antibiotic activity compared with rifampicine (in words) (Escherichia coli; against E. coli) | antibiotic activity compared with rifampicine (in words) (Klebsiella pneumoniae; against K. pneumoniae) | antibiotic activity compared with rifampicine (in words) (Pseudomonas aeruginosa; against P. aeruginosa) |
| --- | --- | --- | --- | --- | --- | --- | --- | --- | --- | --- | --- | --- | --- | --- | --- | --- | --- |
| COC1C=COC2(C)Oc3c(C)c(O)c4c(c3C2=O)C(=O)C(NC(=O)OCCBr)=C(NC(=O)C(C)=CC=CC(C)C(O)C(C)C(O)C(C)C(OC(C)=O)C1C)C4=O (stereo not drawn) [R = 2-bromoethyl, N-(2-Bromoethyloxycarbonyl)-3-aminorifamicin S] | 6600 | about six times higher than rifampicine | – | – | – | – | – | – | – | – | – | – | – | – | – | – | – |
| COC1C=COC2(C)Oc3c(C)c(O)c4c(c3C2=O)C(=O)C(NC(=O)OCc2ccc([N+](=O)[O-])cc2)=C(NC(=O)C(C)=CC=CC(C)C(O)C(C)C(O)C(C)C(OC(C)=O)C1C)C4=O (stereo not drawn) [R = 4-nitrobenzyl, N-(4-Nitrobenzyloxycarbonyl)-3-aminorifamicin S] | 5400 | about six times higher than rifampicine | – | – | – | – | – | – | – | – | – | – | – | – | – | – | – |
| CCOC(=O)NC1=C2NC(=O)C(C)=CC=CC(C)C(O)C(C)C(O)C(C)C(OC(C)=O)C(C)C(OC)C=COC3(C)Oc4c(C)c(O)c(c(c4C3=O)C1=O)C2=O (stereo not drawn) [R = ethyl, N-(Ethyloxycarbonyl)-3-aminorifamycin S] | 2050 | – | 0.00 | 200.00 | 0.00 | 0.00 | at least as high or even higher as the activity of rifampicine | 50.00 | 690 | 1150 | 1030 | 920 | – | – | – | – | – |
| COC(=O)NC1=C2NC(=O)C(C)=CC=CC(C)C(O)C(C)C(O)C(C)C(OC(C)=O)C(C)C(OC)C=COC3(C)Oc4c(C)c(O)c(c(c4C3=O)C1=O)C2=O (stereo not drawn) [R = methyl, N-(Methyloxycarbonyl)-3-aminorifamycin S] | 6000 | – | 0.00 | 0.00 | 0.00 | 200.00 | at least as high or even higher as the activity of rifampicine | 50.00 | 2100 | 2000 | 1900 | 1750 | twice as high as rifampicine | about six times higher than rifampicine | twice as high as rifampicine | twice as high as rifampicine | twice as high as rifampicine |
| CO[C@H]1/C=C/O[C@@]2(C)Oc3c(C)c(O)c4c(O)c(c(/C=N/N5CCN(C)CC5)c(O)c4c3C2=O)NC(=O)/C(C)=C\C=C\[C@H](C)[C@H](O)[C@@H](C)[C@@H](O)[C@@H](C)[C@H](OC(C)=O)[C@@H]1C [rifampicine, reference compound] | – | – | 0.00 | 200.00 | 600.00 | 800.00 | – | 400.00 | – | – | – | – | – | – | – | – | – |
